# Measured values from PubChem BioAssay (NCI).
#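 Grown in 96-well plates, cells were treated for 48 hours with each compound at five concentrations. Insufficient inhibition: endpoint recorded as highest concentration tested. Here, GI50 denotes the concentration required for 50% inhibition of growth. TGI: concentration producing complete growth inhibition.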
# Assays:
# Experiment in all cases: NCI-60 cell line screen, 48 h
# [1] = system: 786-0 renal
# [2] = system: A498 renal
# [3] = system: A549 NSCLC
# [4] = system: ACHN renal
# [5] = system: BT-549 breast
# [6] = system: CAKI-1 renal
# [7] = system: CCRF-CEM leukemia
# [8] = system: COLO 205 colon
# [9] = system: DU-145 prostate
# [10] = system: HCC-2998 colon
# [11] = system: HCT-116 colon
# [12] = system: HCT-15 colon
# [13] = system: HL-60(TB) leukemia
# [14] = system: HOP-62 NSCLC
# [15] = system: HOP-92 NSCLC
# [16] = system: HS 578T breast
# [17] = system: HT29 colon
# [18] = system: IGROV1 ovarian
# [19] = system: K-562 leukemia
# [20] = system: KM12 colon
# [21] = system: LOX IMVI melanoma
# [22] = system: MCF7 breast
# [23] = system: MDA-MB-231 breast
# [24] = system: MDA-MB-435
# [25] = system: NCI-H226 lung
# [26] = system: NCI-H23 lung
# [27] = system: NCI-H460 lung
# [28] = system: NCI-H522 lung
# [29] = system: NCI/ADR-RES ovarian
# [30] = system: OVCAR-3 ovarian
# [31] = system: OVCAR-4 ovarian
# [32] = system: OVCAR-5 ovarian
# [33] = system: OVCAR-8 ovarian
# [34] = system: RPMI-8226 leukemia
# [35] = system: RXF 393 renal
# [36] = system: SF-268 CNS
# [37] = system: SF-295 CNS
# [38] = system: SF-539 CNS
# [39] = system: SK-MEL-28 melanoma
# [40] = system: SK-MEL-5 melanoma
# [41] = system: SK-OV-3 ovarian
# [42] = system: SN12C renal
# [43] = system: SNB-19 CNS
# [44] = system: SNB-75 CNS
# [45] = system: SR leukemia
# [46] = system: SW-620 colon
# [47] = system: T-47D breast
# [48] = system: TK-10 renal
# [49] = system: U251 CNS
# [50] = system: UACC-257 melanoma
# [51] = system: UO-31 renal
compound,measurement,setting,value
Cc1cc(Nc2ncc(F)c(N[C@H]3[C@@H](C(N)=O)[C@@H]4C=C[C@H]3C4)n2)ccc1N1CCN(C)CC1,GI50,[1],0.0688 µM
same,TGI,[1],5.25 µM
same,GI50,[2],< 0.0116 µM
same,TGI,[2],0.0693 µM
same,GI50,[3],< 0.01 µM
same,TGI,[3],2.32 µM
same,GI50,[4],0.0178 µM
same,TGI,[4],12.9 µM
same,GI50,[5],0.0765 µM
same,TGI,[5],1.15 µM
same,GI50,[6],0.0217 µM
same,TGI,[6],14 µM
same,GI50,[7],< 0.01 µM
same,TGI,[7],6.03 µM
same,GI50,[8],< 0.01 µM
same,TGI,[8],< 0.0326 µM
same,GI50,[9],0.455 µM
same,TGI,[9],17.7 µM
same,GI50,[10],2.15 µM
same,TGI,[10],6.18 µM
same,GI50,[11],0.0199 µM
same,TGI,[11],7.81 µM
same,GI50,[12],0.0374 µM
same,TGI,[12],16 µM
same,GI50,[13],2.96 µM
same,TGI,[13],11.4 µM
same,GI50,[14],0.134 µM
same,TGI,[14],2.56 µM
same,GI50,[15],0.0249 µM
same,TGI,[15],0.327 µM
same,GI50,[16],0.0274 µM
same,TGI,[16],0.33 µM
same,GI50,[17],0.0471 µM
same,GI50,[18],0.0302 µM
same,TGI,[18],18.8 µM
same,GI50,[19],0.416 µM
same,TGI,[19],> 100 µM
same,GI50,[20],0.208 µM
same,TGI,[20],11.5 µM
same,GI50,[21],0.0249 µM
same,TGI,[21],1.29 µM
same,GI50,[22],0.0599 µM
same,TGI,[22],3.23 µM
same,GI50,[23],0.124 µM
same,TGI,[23],1.73 µM
same,GI50,[24],1.49 µM
same,TGI,[24],15.6 µM
same,GI50,[25],< 0.0156 µM
same,TGI,[25],2.85 µM
same,GI50,[26],1.51 µM
same,TGI,[26],7.15 µM
same,GI50,[27],0.0101 µM
same,TGI,[27],4.21 µM
same,GI50,[28],0.0436 µM
same,TGI,[28],3.35 µM
same,GI50,[29],0.348 µM
same,TGI,[29],8.57 µM
same,GI50,[30],1.48 µM
same,TGI,[30],3.15 µM
same,GI50,[31],1.6 µM
same,TGI,[31],3.22 µM
same,GI50,[32],0.0405 µM
same,TGI,[32],> 20.4 µM
same,GI50,[33],0.133 µM
same,TGI,[33],6.34 µM
same,GI50,[34],1.86 µM
same,TGI,[34],6.85 µM
same,GI50,[35],0.0165 µM
same,TGI,[35],0.187 µM
same,GI50,[36],0.107 µM
same,TGI,[36],6.68 µM
same,GI50,[37],< 0.0177 µM
same,TGI,[37],12.7 µM
same,GI50,[38],0.0362 µM
same,TGI,[38],0.586 µM
same,GI50,[39],4.28 µM
same,TGI,[39],17.7 µM
same,GI50,[40],1.97 µM
same,TGI,[40],6.79 µM
same,GI50,[41],0.0368 µM
same,TGI,[41],2.22 µM
same,GI50,[42],0.0328 µM
same,TGI,[42],11.5 µM
same,GI50,[43],0.725 µM
same,TGI,[43],8.75 µM
same,GI50,[44],< 0.0153 µM
same,TGI,[44],0.167 µM
same,GI50,[45],< 0.01 µM
same,TGI,[45],2.32 µM
same,GI50,[46],0.0218 µM
same,TGI,[46],8.5 µM
same,GI50,[47],6.74 µM
same,TGI,[47],26.7 µM
same,GI50,[48],0.0225 µM
same,TGI,[48],1.96 µM
same,GI50,[49],0.0694 µM
same,TGI,[49],4.8 µM
same,GI50,[50],4.07 µM
same,TGI,[50],18.1 µM
same,GI50,[51],0.0393 µM
same,TGI,[51],4.64 µM
